{"source": "patent US20260224588A1", "about": "“BENZODIAZEPINONE-DERIVED INHIBITORS OF EGFR AND HER2” (The Research Foundation for the State University of New York, priority 2023, published 2026)", "assay_in_all_cases": "KINOMEscan", "type_in_all_cases": "binding", "settings_in_all_cases": "1 μM of compound 4; read-out: POC", "key": {"CAMK1": {"target": "CAMK1 (Homo sapiens, UniProt Q14012)", "sequence (Q14012 whole entry)": "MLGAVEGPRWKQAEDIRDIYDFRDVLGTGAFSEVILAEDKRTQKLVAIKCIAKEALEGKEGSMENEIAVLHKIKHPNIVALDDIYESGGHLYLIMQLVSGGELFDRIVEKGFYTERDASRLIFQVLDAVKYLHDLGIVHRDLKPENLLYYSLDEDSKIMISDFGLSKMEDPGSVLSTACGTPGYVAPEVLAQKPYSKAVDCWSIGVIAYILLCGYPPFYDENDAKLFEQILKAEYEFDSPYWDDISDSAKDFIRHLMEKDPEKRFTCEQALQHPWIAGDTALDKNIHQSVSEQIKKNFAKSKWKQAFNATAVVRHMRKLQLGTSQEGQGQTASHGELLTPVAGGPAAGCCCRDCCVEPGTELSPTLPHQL"}, "CHEK2": {"target": "CHEK2 (Homo sapiens, UniProt O96017)"}, "TAOK1": {"target": "T1, TAOK1 (Homo sapiens, UniProt Q7L7X3)", "T1 construct": "purchased Eurofins DiscoverX Corporation"}, "PRKG1": {"target": "PRKG1 (Homo sapiens, UniProt Q13976)"}, "CAMKK1": {"target": "CAMKK1 (Homo sapiens, UniProt Q8N5S9)"}, "EPHA3": {"target": "T2, EPHA3 (Homo sapiens, UniProt P29320)", "T2 construct": "purchased Eurofins DiscoverX (KINOMEscan service)"}, "MEK6": {"target": "MEK6 (Homo sapiens, UniProt P52564)", "sequence (P52564 whole entry)": "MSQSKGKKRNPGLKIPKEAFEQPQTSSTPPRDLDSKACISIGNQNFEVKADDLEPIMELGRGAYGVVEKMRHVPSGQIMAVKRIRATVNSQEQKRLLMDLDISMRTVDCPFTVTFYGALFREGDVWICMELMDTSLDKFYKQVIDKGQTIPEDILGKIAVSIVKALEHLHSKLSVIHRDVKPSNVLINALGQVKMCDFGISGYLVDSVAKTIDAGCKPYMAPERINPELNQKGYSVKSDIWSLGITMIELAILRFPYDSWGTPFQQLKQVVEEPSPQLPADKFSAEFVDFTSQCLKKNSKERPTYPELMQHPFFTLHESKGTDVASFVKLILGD"}, "PIP5K1A": {"target": "PIP5K1A (Homo sapiens, UniProt Q99755)"}, "CDK9": {"target": "CDK9 (Homo sapiens, UniProt P50750)"}, "TBK1": {"target": "T3, TBK1 (Homo sapiens, UniProt Q9UHD2)", "T3 construct": "purchased Eurofins DiscoverX Corporation"}, "CDC2L5": {"target": "CDC2L5 (Homo sapiens, UniProt Q14004)"}, "SIK": {"target": "T4, SIK (Homo sapiens, UniProt P57059)", "T4 construct": "purchased Eurofins DiscoverX (KINOMEscan service)"}, "TGFBR2": {"target": "T5, TGFBR2 (Homo sapiens, UniProt P37173)", "T5 construct": "purchased Eurofins DiscoverX Corporation"}, "MEK1": {"target": "MEK1 (Homo sapiens, UniProt Q02750)"}, "MERTK": {"target": "MERTK (Homo sapiens, UniProt Q12866)"}, "NEK11": {"target": "NEK11 (Homo sapiens, UniProt Q8NG66)"}, "MAP4K2": {"target": "MAP4K2 (Homo sapiens, UniProt Q12851)", "sequence (Q12851 whole entry)": "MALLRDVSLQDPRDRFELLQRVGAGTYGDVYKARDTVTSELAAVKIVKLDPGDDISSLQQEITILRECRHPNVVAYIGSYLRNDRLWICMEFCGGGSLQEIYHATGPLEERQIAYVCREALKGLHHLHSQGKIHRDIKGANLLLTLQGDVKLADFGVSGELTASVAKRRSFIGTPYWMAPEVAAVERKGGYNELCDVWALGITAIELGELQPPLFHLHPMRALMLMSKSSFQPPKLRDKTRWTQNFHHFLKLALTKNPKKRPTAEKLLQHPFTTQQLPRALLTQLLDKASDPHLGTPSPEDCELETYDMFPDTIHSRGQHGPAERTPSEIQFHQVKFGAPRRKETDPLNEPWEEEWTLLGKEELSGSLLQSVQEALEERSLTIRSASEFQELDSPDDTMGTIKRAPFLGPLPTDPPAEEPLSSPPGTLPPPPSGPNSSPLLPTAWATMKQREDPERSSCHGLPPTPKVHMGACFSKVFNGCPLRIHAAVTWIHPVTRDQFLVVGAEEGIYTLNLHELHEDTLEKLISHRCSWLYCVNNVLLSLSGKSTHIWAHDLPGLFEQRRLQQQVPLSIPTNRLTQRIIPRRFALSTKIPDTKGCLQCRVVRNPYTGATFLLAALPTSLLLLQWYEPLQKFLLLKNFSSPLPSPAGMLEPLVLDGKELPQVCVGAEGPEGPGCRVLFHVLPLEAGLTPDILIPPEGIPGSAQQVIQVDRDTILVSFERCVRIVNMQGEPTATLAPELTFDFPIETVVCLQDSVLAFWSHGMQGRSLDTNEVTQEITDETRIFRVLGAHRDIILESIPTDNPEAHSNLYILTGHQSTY"}, "ERN1": {"target": "T6, ERN1 (Homo sapiens, UniProt O75460)", "T6 construct": "purchased Eurofins DiscoverX Corporation", "T6 sequence (O75460 19-977)": "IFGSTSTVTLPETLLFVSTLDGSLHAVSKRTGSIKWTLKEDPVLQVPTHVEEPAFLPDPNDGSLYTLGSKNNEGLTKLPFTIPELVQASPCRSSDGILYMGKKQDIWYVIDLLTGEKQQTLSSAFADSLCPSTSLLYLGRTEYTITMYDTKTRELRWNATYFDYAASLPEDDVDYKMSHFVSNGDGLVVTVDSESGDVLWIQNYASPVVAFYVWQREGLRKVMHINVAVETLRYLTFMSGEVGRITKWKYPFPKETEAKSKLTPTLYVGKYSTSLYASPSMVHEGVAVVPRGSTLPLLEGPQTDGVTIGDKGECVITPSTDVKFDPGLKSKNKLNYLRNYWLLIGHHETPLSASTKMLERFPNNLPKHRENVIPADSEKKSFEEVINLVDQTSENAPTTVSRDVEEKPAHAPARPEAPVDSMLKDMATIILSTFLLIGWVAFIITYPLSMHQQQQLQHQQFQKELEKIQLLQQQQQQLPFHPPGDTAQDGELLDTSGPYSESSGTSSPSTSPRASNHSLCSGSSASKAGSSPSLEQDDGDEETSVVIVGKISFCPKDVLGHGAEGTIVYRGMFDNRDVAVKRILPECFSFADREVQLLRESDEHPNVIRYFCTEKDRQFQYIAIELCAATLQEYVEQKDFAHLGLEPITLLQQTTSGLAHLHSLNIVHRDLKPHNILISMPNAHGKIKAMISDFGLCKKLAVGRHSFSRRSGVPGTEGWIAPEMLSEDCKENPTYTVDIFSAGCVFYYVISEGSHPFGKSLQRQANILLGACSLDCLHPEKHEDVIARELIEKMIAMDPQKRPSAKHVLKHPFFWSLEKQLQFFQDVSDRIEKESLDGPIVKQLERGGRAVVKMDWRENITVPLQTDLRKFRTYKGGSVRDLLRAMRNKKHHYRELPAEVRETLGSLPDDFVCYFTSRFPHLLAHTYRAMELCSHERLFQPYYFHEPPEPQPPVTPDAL"}, "[1]": {"target": "T7, ABL1(F317L)-nonphosphorylated (Homo sapiens, UniProt P00519, F317L)", "T7 construct": "purchased Eurofins DiscoverX Corporation"}, "NEK9": {"target": "T8, NEK9 (Homo sapiens, UniProt Q8TD19)", "T8 construct": "purchased Eurofins DiscoverX Corporation (KINOMEscan)"}, "IRAK3": {"target": "IRAK3 (Homo sapiens, UniProt Q9Y616)"}, "MAK": {"target": "MAK (Homo sapiens, UniProt P20794)"}, "CDK3": {"target": "CDK3 (Homo sapiens, UniProt Q00526)", "sequence (Q00526 whole entry)": "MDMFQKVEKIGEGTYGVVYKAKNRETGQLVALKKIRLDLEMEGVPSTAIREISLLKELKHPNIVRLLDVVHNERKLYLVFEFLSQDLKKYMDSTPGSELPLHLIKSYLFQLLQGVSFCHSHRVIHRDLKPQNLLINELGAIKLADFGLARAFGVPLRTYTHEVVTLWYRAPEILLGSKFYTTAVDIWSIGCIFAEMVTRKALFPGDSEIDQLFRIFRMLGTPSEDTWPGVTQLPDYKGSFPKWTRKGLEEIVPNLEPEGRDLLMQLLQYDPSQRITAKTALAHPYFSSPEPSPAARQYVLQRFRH"}, "ASK2": {"target": "ASK2 (Homo sapiens, UniProt O95382)"}, "DLK": {"target": "DLK (Homo sapiens, UniProt Q12852)"}, "PIP5K2B": {"target": "PIP5K2B (Homo sapiens, UniProt P78356)"}, "PRKCI": {"target": "PRKCI (Homo sapiens, UniProt P41743)"}, "PRKG2": {"target": "PRKG2 (Homo sapiens, UniProt Q13237)"}, "DCAMKL2": {"target": "DCAMKL2 (Homo sapiens, UniProt Q8N568)", "sequence (Q8N568 whole entry)": "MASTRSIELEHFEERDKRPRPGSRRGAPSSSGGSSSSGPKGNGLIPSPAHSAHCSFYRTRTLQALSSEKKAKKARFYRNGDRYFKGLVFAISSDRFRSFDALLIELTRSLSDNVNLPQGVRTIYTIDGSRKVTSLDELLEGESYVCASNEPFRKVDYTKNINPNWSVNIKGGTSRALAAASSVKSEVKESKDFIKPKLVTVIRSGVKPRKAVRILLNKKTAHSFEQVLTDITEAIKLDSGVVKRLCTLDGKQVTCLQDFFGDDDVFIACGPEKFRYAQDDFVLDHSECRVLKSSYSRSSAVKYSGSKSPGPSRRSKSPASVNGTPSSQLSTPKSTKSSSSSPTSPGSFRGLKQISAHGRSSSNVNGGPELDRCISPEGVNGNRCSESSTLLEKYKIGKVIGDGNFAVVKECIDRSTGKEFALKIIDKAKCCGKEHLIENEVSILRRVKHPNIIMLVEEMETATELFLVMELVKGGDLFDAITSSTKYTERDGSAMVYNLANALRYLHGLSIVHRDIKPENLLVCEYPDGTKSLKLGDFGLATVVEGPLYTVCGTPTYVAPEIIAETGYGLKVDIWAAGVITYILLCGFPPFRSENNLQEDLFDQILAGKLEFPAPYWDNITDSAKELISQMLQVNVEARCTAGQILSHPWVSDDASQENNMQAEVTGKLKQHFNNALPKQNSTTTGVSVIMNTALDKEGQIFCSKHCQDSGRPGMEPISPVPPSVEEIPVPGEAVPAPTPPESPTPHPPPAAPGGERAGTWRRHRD"}, "PIK3CA(M1043I)": {"target": "PIK3CA(M1043I) (Homo sapiens, UniProt P42336, M1043I)", "sequence (P42336 whole entry M1043I)": "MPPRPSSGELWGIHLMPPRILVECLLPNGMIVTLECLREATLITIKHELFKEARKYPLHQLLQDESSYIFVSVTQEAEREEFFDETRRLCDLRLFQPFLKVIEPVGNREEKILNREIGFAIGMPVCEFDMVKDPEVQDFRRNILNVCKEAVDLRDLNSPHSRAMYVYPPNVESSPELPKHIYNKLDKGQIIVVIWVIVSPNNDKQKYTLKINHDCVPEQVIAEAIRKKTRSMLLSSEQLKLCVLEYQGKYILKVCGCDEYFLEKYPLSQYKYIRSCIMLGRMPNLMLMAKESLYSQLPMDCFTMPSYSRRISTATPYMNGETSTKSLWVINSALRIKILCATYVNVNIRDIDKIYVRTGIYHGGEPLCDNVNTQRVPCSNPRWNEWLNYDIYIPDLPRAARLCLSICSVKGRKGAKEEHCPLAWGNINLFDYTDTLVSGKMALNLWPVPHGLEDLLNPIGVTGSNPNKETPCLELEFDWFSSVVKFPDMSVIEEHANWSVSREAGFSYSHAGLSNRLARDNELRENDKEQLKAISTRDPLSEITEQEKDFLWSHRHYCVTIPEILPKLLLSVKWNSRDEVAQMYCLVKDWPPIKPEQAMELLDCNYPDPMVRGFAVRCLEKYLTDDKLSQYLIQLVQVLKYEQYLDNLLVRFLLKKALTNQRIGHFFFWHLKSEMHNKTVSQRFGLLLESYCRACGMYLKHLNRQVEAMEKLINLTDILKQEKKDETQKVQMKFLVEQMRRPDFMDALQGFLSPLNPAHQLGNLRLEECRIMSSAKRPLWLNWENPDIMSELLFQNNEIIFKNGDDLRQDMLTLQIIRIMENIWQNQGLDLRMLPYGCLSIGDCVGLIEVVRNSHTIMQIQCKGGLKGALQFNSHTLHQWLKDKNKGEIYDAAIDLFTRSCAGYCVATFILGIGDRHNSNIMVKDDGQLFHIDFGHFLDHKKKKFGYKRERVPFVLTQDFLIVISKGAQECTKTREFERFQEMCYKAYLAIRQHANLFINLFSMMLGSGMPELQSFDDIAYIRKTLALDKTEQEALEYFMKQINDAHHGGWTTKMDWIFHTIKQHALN"}, "IKK-epsilon": {"target": "IKK-epsilon (Homo sapiens, UniProt Q14164)"}, "p38-gamma": {"target": "T9, p38-gamma (Homo sapiens, UniProt P53778)", "T9 construct": "purchased Eurofins DiscoverX Corporation (KINOMEscan)"}, "MEK2": {"target": "MEK2 (Homo sapiens, UniProt P36507)"}, "PIK3CA(E545A)": {"target": "PIK3CA(E545A) (Homo sapiens, UniProt P42336, E545A)"}, "BRAF": {"target": "BRAF (Homo sapiens, UniProt P15056)"}, "PLK3": {"target": "PLK3 (Homo sapiens, UniProt Q9H4B4)"}, "FLT3(N841I)": {"target": "T10, FLT3(N841I) (Homo sapiens, UniProt P36888, N841I)", "T10 construct": "purchased Eurofins DiscoverX Corporation"}, "LRRK2": {"target": "LRRK2 (Homo sapiens, UniProt Q5S007)"}, "MST4": {"target": "MST4 (Homo sapiens, UniProt Q9P289)"}, "GSK3B": {"target": "T11, GSK3B (Homo sapiens, UniProt P49841)", "T11 construct": "purchased Eurofins DiscoverX Corporation", "T11 sequence (P49841 whole entry)": "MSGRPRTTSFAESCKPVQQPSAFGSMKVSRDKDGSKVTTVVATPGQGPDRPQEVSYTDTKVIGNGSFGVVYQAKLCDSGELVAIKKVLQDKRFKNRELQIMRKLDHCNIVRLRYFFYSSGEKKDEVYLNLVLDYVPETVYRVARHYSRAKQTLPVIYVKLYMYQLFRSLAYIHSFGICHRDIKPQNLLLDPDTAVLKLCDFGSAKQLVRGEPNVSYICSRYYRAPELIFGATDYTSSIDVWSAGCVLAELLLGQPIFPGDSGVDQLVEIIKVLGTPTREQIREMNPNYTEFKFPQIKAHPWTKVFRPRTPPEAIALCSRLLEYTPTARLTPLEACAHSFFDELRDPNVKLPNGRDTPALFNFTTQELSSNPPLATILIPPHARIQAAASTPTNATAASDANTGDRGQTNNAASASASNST"}}}
{"smiles": "C=CC(=O)Nc1ccc(OC)c(Nc2cc(-c3[nH]c(CC)nc3-c3cccc(NC(=O)c4cccc5c4NC(=O)c4ccccc4N5)c3)ccn2)c1", "note": "[Compound 4, N-(3-(5-(2-((5-Acrylamido-2-methoxyphenyl)amino)pyridin-4-yl)-2-ethyl-1H-imidazol-4-yl)phenyl)-11-oxo-10,11-dihydro-5H-dibenzo[b,e][1,4]diazepine-9-carboxamide]", "values": [{"measurement": "remaining binding at 1 µM", "setting": "CAMK1", "result": 81, "unit": "%"}, {"measurement": "remaining binding at 1 µM", "setting": "CHEK2", "result": 87, "unit": "%"}, {"measurement": "remaining binding at 1 µM", "setting": "TAOK1", "result": 100, "unit": "%"}, {"measurement": "remaining binding at 1 µM", "setting": "PRKG1", "result": 100, "unit": "%"}, {"measurement": "remaining binding at 1 µM", "setting": "CAMKK1", "result": 85, "unit": "%"}, {"measurement": "remaining binding at 1 µM", "setting": "EPHA3", "result": 81, "unit": "%"}, {"measurement": "remaining binding at 1 µM", "setting": "MEK6", "result": 73, "unit": "%"}, {"measurement": "remaining binding at 1 µM", "setting": "PIP5K1A", "result": 75, "unit": "%"}, {"measurement": "remaining binding at 1 µM", "setting": "CDK9", "result": 100, "unit": "%"}, {"measurement": "remaining binding at 1 µM", "setting": "TBK1", "result": 95, "unit": "%"}, {"measurement": "remaining binding at 1 µM", "setting": "CDC2L5", "result": 74, "unit": "%"}, {"measurement": "remaining binding at 1 µM", "setting": "SIK", "result": 100, "unit": "%"}, {"measurement": "remaining binding at 1 µM", "setting": "TGFBR2", "result": 75, "unit": "%"}, {"measurement": "remaining binding at 1 µM", "setting": "MEK1", "result": 100, "unit": "%"}, {"measurement": "remaining binding at 1 µM", "setting": "MERTK", "result": 83, "unit": "%"}, {"measurement": "remaining binding at 1 µM", "setting": "NEK11", "result": 100, "unit": "%"}, {"measurement": "remaining binding at 1 µM", "setting": "MAP4K2", "result": 36, "unit": "%"}, {"measurement": "remaining binding at 1 µM", "setting": "ERN1", "result": 74, "unit": "%"}, {"measurement": "remaining binding at 1 µM", "setting": "[1]", "result": 37, "unit": "%"}, {"measurement": "remaining binding at 1 µM", "setting": "NEK9", "result": 83, "unit": "%"}, {"measurement": "remaining binding at 1 µM", "setting": "IRAK3", "result": 39, "unit": "%"}, {"measurement": "remaining binding at 1 µM", "setting": "MAK", "result": 89, "unit": "%"}, {"measurement": "remaining binding at 1 µM", "setting": "CDK3", "result": 100, "unit": "%"}, {"measurement": "remaining binding at 1 µM", "setting": "ASK2", "result": 100, "unit": "%"}, {"measurement": "remaining binding at 1 µM", "setting": "DLK", "result": 100, "unit": "%"}, {"measurement": "remaining binding at 1 µM", "setting": "PIP5K2B", "result": 100, "unit": "%"}, {"measurement": "remaining binding at 1 µM", "setting": "PRKCI", "result": 100, "unit": "%"}, {"measurement": "remaining binding at 1 µM", "setting": "PRKG2", "result": 62, "unit": "%"}, {"measurement": "remaining binding at 1 µM", "setting": "DCAMKL2", "result": 100, "unit": "%"}, {"measurement": "remaining binding at 1 µM", "setting": "PIK3CA(M1043I)", "result": 55, "unit": "%"}, {"measurement": "remaining binding at 1 µM", "setting": "IKK-epsilon", "result": 100, "unit": "%"}, {"measurement": "remaining binding at 1 µM", "setting": "p38-gamma", "result": 100, "unit": "%"}, {"measurement": "remaining binding at 1 µM", "setting": "MEK2", "result": 100, "unit": "%"}, {"measurement": "remaining binding at 1 µM", "setting": "PIK3CA(E545A)", "result": 100, "unit": "%"}, {"measurement": "remaining binding at 1 µM", "setting": "BRAF", "result": 90, "unit": "%"}, {"measurement": "remaining binding at 1 µM", "setting": "PLK3", "result": 87, "unit": "%"}, {"measurement": "remaining binding at 1 µM", "setting": "FLT3(N841I)", "result": 97, "unit": "%"}, {"measurement": "remaining binding at 1 µM", "setting": "LRRK2", "result": 93, "unit": "%"}, {"measurement": "remaining binding at 1 µM", "setting": "MST4", "result": 94, "unit": "%"}, {"measurement": "remaining binding at 1 µM", "setting": "GSK3B", "result": 100, "unit": "%"}]}
